Measured values published in patent US20240246942A1, “KINASE INHIBITORS FOR THE TREATMENT OF NEURODEGENERATIVE DISEASES” (priority 2020, published 2024).

Experiments:
Assay in all cases: biochemical
[1] = molecular target: T1, panel of 374 wild-type kinases (Homo sapiens, UniProt O14920); conditions: read-out: % Enzyme Activity (relative to DMSO controls), IKKb/IKBKB
T1 construct: purchased Reaction Biology Corporation
T1 sequence (O14920 1-756): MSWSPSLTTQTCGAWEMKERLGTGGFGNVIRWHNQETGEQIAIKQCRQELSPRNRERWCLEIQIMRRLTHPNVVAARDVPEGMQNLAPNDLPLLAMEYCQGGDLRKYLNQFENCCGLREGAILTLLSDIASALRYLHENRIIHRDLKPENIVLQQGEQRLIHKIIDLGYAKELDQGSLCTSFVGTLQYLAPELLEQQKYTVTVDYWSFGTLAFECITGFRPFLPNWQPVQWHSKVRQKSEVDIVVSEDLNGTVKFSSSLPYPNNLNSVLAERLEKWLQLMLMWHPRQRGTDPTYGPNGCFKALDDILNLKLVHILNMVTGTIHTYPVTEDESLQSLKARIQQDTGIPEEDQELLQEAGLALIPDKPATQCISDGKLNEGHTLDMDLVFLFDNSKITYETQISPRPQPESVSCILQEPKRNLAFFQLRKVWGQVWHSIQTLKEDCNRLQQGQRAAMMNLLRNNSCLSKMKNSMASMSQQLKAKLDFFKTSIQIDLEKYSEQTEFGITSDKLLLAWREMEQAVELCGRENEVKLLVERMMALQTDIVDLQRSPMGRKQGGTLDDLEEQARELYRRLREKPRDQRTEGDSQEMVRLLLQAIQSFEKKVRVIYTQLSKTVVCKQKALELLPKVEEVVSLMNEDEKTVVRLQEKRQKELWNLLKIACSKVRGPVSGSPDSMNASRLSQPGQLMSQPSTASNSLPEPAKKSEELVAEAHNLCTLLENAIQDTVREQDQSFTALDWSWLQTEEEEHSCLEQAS

[2] = molecular target: T2, panel of 374 wild-type kinases (Homo sapiens, UniProt P19784); conditions: CK2a2, read-out: % Enzyme Activity (relative to DMSO controls)
T2 construct: purchased Reaction Biology Corporation
T2 sequence (P19784 whole entry): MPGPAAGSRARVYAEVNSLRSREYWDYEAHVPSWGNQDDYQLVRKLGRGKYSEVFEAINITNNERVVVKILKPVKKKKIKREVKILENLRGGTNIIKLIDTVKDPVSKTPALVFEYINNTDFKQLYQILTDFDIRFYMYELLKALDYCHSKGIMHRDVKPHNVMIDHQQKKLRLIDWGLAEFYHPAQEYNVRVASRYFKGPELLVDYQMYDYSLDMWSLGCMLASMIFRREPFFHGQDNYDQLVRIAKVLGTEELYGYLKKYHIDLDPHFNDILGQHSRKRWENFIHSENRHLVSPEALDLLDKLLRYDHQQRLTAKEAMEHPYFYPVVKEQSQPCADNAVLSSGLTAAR

[3] = molecular target: T3, panel of 374 wild-type kinases (Homo sapiens, UniProt Q6IQ55); conditions: read-out: % Enzyme Activity (relative to DMSO controls), kinase TTBK2
T3 construct: purchased Reaction Biology Corporation
T3 sequence (Q6IQ55 whole entry): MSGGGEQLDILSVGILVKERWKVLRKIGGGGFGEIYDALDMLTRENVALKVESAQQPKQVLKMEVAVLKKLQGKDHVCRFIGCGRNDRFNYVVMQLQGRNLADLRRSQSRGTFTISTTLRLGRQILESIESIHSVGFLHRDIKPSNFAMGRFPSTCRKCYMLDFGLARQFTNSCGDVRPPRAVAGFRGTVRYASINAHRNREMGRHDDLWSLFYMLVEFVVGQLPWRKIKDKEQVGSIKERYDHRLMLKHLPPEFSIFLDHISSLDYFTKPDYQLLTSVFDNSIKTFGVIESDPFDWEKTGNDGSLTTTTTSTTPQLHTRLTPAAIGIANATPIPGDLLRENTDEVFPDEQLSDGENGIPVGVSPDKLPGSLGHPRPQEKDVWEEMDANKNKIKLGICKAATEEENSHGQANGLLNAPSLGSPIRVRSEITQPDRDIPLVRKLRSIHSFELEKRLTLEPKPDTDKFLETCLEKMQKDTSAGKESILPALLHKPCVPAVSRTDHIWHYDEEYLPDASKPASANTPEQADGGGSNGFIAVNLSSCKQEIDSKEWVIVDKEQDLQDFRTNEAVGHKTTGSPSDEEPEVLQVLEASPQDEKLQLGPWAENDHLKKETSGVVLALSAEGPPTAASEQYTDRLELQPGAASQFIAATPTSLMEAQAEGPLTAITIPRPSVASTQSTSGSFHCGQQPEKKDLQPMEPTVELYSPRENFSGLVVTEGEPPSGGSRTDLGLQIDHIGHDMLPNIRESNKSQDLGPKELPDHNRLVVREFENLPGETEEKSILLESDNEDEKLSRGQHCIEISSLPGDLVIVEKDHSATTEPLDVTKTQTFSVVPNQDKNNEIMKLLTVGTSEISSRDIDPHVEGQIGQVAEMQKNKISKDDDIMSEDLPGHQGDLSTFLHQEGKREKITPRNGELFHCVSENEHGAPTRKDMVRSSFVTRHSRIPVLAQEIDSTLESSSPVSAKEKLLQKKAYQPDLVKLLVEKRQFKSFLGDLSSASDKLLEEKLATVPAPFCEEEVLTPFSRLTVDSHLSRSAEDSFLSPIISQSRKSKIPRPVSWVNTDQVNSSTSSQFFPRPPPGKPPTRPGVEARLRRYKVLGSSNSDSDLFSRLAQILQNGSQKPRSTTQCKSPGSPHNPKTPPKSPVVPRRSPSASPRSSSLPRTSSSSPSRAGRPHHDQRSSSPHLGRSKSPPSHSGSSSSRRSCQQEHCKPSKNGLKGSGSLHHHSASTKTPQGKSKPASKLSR

[4] = molecular target: T4, panel of 374 wild-type kinases (Homo sapiens, UniProt Q7L7X3); conditions: read-out: % Enzyme Activity (relative to DMSO controls), kinase TAOK1
T4 construct: purchased Reaction Biology Corporation
T4 sequence (Q7L7X3 1-1001): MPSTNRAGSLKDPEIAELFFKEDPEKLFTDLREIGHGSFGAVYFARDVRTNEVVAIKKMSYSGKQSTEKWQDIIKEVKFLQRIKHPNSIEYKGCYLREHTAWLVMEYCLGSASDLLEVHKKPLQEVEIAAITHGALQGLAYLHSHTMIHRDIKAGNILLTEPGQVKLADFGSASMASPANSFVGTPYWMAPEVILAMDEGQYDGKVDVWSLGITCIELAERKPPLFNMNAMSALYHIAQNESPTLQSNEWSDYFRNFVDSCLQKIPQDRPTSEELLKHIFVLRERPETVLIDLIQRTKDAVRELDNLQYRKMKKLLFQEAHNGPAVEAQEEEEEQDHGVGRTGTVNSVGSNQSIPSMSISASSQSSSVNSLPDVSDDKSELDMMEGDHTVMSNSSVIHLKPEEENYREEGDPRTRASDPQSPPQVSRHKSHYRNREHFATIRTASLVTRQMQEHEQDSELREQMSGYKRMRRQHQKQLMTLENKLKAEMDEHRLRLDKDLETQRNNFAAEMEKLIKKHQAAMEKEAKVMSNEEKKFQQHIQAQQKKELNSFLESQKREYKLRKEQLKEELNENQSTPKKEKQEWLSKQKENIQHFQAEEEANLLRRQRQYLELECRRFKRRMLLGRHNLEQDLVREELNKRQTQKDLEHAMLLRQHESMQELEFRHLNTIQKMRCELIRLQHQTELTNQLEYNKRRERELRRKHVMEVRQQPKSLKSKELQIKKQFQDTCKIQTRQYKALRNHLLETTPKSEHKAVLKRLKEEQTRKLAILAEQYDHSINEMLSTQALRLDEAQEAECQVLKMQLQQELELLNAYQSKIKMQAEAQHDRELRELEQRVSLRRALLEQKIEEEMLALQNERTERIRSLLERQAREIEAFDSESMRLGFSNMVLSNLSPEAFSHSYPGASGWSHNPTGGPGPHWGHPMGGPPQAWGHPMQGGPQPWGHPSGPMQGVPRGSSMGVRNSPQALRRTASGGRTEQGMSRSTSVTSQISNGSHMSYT

[5] = molecular target: T5, panel of 374 wild-type kinases (Homo sapiens, UniProt Q86V86); conditions: read-out: % Enzyme Activity (relative to DMSO controls), kinase PIM3
T5 construct: purchased Reaction Biology Corporation

Structure (SMILES) | remaining activity at 5 µM [1] | remaining activity at 5 µM [2] | remaining activity at 5 µM [3] | remaining activity at 5 µM [4] | remaining activity at 5 µM [5] | remaining activity at 10 µM ([1]; 10 uM) | remaining activity at 10 µM ([2]; 10 uM) | remaining activity at 10 µM ([3]; 10 uM) | remaining activity at 10 µM ([4]; 10 uM) | remaining activity at 10 µM ([5]; 10 uM)
O=C(Nc1cnn(-c2csc(C(=O)NC3COC3)c2)c1)Nc1ccccc1Cl [Compound 17, 4-(4-(3-(2-chlorophenyl)ureido)-1H-pyrazol-1-yl)-N-(oxetan-3-yl)thiophene-2-carboxamide] | 95.6% | 97.3% | 107% | 122% | 61.2% | – | – | – | – | –
Cc1sc(C(=O)NC2COC2)cc1-n1cc(NC(=O)Nc2c(F)cccc2Cl)cn1 [Compound 27, 4-(4-(3-(2-chloro-6-fluorophenyl)ureido)-1H-pyrazol-1-yl)-5-methyl-N-(oxetan-3-yl)thiophene-2-carboxamide] | – | – | – | – | – | 86.8% | 95.5% | 97.6% | 110% | 129%
O=C(Nc1cnn(-c2csc(C(=O)NC3COC3)c2)c1)Nc1c(F)cccc1Cl [Compound 25, 4-(4-(3-(2-chloro-6-fluorophenyl)ureido)-1H-pyrazol-1-yl)-N-(oxetan-3-yl)thiophene-2-carboxamide] | 94.7% | 96.6% | 104% | 90.6% | 73.9% | – | – | – | – | –
